Experimental data as given in patent US9156796B2, “Benzoimidazole-carboxylic acid amide derivatives as APJ receptor modulators” (SANOFI, priority 2013, dated 2015).

Target: T1, human apelin receptor (Homo sapiens, UniProt P35414)
T1 construct: expressed in transfected cells
T1 sequence (P35414 1-380): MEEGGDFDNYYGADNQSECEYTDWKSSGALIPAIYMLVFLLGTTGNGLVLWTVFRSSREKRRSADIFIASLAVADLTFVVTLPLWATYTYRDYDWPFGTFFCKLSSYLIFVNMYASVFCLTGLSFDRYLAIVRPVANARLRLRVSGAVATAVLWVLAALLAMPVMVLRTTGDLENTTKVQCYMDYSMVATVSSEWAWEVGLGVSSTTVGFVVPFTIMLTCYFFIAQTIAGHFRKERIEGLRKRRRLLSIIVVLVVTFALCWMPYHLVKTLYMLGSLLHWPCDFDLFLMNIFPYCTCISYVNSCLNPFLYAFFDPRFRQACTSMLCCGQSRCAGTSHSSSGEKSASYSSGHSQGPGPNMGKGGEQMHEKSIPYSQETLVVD
Assay: Determination of agonism on the human apelin receptor by a calcium fluorescence assay (FLIPR)
Type: cell-based
Conditions: EC50 (APJ agonism), HEK293 cells stably transfected with human apelin receptor and Giaq protein, Fluo-4 calcium fluorescence
Procedure, shortened: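 Agonist EC50s come from peak intracellular calcium transients recorded by FLIPR Tetra, scaled to the 1 μM apelin-13 maximum per plate. Test system: HEK293 stably transfected with human apelin receptor plus Giaq, Fluo-4-loaded (4 μM, 1 h, 37 °C, pH 7.4 buffer with probenecid); ≥7 concentrations, triplicates.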

Q: For `CCC(CC)n1c(CC2CCCC2)nc2cc(C(=O)N[C@H](CO)CCSC)ccc21` [Example 178, 2-Cyclopentylmethyl-1-(1-ethyl-propyl)-1H-benzoimidazole-5-carboxylic acid ((S)-1-hydroxymethyl-3-methylsulfanyl-propyl)-amide], which EC50 is on record?
A: The EC50 was 17400 nM.

Q: `CCC(CC)n1c(Cc2cccs2)nc2cc(C(=O)N[C@H](CO)C(C)C)ccc21` [Example 190, 1-(1-Ethyl-propyl)-2-thiophen-2-ylmethyl-1H-benzoimidazole-5-carboxylic acid ((S)-1-hydroxymethyl-2-methyl-propyl)-amide] was tested. Which EC50 did it give?
A: Its EC50 is 6280 nM.

Same assay, conditions: HEK293 cells stably transfected with human apelin receptor and Giaq protein, Fluo-4 calcium fluorescence, read-out: EC50 (APJ agonism)

Q: How did the EC50 turn out when `CCC(CC)n1c(Cc2cccs2)nc2cc(C(=O)N[C@@H](CC3CCCCC3)C(=O)O)ccc21` [Example 125, (S)-3-Cyclohexyl-2-{[1-(1-ethyl-propyl)-2-thiophen-2-ylmethyl-1H-benzoimidazole-5-carbonyl]-amino}-propionic acid] was run?
A: Its EC50 is 78 nM.

Q: Which EC50 does the source give for `CCC[C@@H](CO)NC(=O)c1ccc2c(c1)nc(CC1CCCC1)n2C(CC)CC` [Example 186, 2-Cyclopentylmethyl-1-(1-ethyl-propyl)-1H-benzoimidazole-5-carboxylic acid ((S)-1-hydroxymethyl-butyl)-amide] here?
A: The EC50 was 4670 nM.

Q: How did the EC50 turn out when `CCC(CC)n1c(Cc2cscn2)nc2cc(C(=O)N[C@H](CC(=O)O)CC(C)C)ccc21` [Example 98, (S)-3-{[1-(1-Ethyl-propyl)-2-thiazol-4-ylmethyl-1H-benzoimidazole-5-carbonyl]-amino}-5-methyl-hexanoic acid] was run?
A: The EC50 was 2190 nM.

Q: For `CCC(CC)n1c(Cc2cccs2)nc2cc(C(=O)N[C@@H](CC(C)C)C(=O)Nc3ccc(OC)cc3)ccc21` [Example 265, 1-(1-Ethyl-propyl)-2-thiophen-2-ylmethyl-1H-benzoimidazole-5-carboxylic acid [(S)-1-(4-methoxy-phenylcarbamoyl)-3-methyl-butyl]-amide], which EC50 is on record?
A: The EC50 was 8660 nM.

Q: With `Cc1ccc(Cc2nc3cc(C(=O)N[C@@H](CC(C)C)C(=O)O)ccc3n2C2CCCCC2C)s1` (stereo partly drawn) [Example 144, (S)-4-Methyl-2-{[1-(2-methyl-cyclohexyl)-2-(5-methyl-thiophen-2-ylmethyl)-1H-benzoimidazole-5-carbonyl]-amino}-pentanoic acid] as the compound, how does the EC50 read?
A: The EC50 was 23000 nM.

Q: How did the EC50 turn out when `CCC(CC)n1c(Cc2cccs2)nc2cc(C(=O)N[C@@H](CC(C)C)C(=O)NCCC3CCCCN3Cc3ccccc3)ccc21` (stereo partly drawn) [Example 307, 1-(1-Ethyl-propyl)-2-thiophen-2-ylmethyl-1H-benzoimidazole-5-carboxylic acid {(S)-1-[2-(1-benzyl-piperidin-2-yl)-ethylcarbamoyl]-3-methyl-butyl}-amide] was run?
A: Its EC50 is 1830 nM.

Q: With `CCC(CC)n1c(Cc2cccs2)nc2cc(C(=O)NC(CC3CCCCCC3)C(=O)O)ccc21` (single isomer, unassigned) [Example 448] as the compound, how does the EC50 read?
A: Its EC50 is 706 nM.

Q: For `CCC(CC)n1c(Cc2cccs2)nc2cc(C(=O)N[C@@H](CC(C)C)C(=O)NCCCN3CCN(CC)CC3)ccc21` [Example 278, 1-(1-Ethyl-propyl)-2-thiophen-2-ylmethyl-1H-benzoimidazole-5-carboxylic acid {(S)-1-[3-{4-ethyl-piperazin-1-yl)-propylcarbamoyl]-3-methyl-butyl}-amide], which EC50 is on record?
A: The EC50 was 405 nM.

Q: How did the EC50 turn out when `CCOC[C@H](CC(C)C)NC(=O)c1ccc2c(c1)nc(Cc1cccs1)n2C(CC)CC` [Example 208, 1-(1-Ethyl-propyl)-2-thiophen-2-ylmethyl-1H-benzoimidazole-5-carboxylic acid ((S)-1-ethoxymethyl-3-methyl-butyl)-amide] was run?
A: The EC50 was 1160 nM.

Q: `CCC(CC)n1c(Cc2cccs2)nc2cc(C(=O)N[C@@H](CC(C)C)C(=O)NCC3CCOCC3)ccc21` [Example 369, 1-(1-Ethyl-propyl)-2-thiophen-2-ylmethyl-1H-benzoimidazole-5-carboxylic acid {(S)-3-methyl-1-[(tetrahydro-pyran-4-ylmethyl)-carbamoyl]-butyl}-amide] was tested. Which EC50 did it give?
A: The EC50 was 2210 nM.

Q: For `C[C@@H]1CCCC[C@H]1n1c(Cc2cccs2)nc2cc(C(=O)NC(CC3CCCCCC3)C(=O)O)ccc21` (single isomer, unassigned) [Example 451], which EC50 is on record?
A: The EC50 was 1230 nM.

Q: `CC1CCCCC1n1c(Cc2cccs2)nc2cc(C(=O)N[C@@H](CC3CCCCC3)C(=O)O)ccc21` (single isomer, unassigned) [Example 426] was tested. Which EC50 did it give?
A: The EC50 was 1630 nM.

Q: With `CCCC[C@H](NC(=O)c1ccc2c(c1)nc(Cc1cccs1)n2C1CCCCC1C)C(=O)O` (single isomer, unassigned) [Example 422] as the compound, how does the EC50 read?
A: Its EC50 is 1860 nM.

Q: With `CCCCC(NC(=O)c1ccc2c(c1)nc(Cc1cccs1)n2C(CC)CC)C(C)(C)C(=O)O` (single isomer, unassigned) [Example 469] as the compound, how does the EC50 read?
A: Its EC50 is 60 nM.

Q: Which EC50 does the source give for `CCC(CC)n1c(CC2CCCC2)nc2cc(C(=O)N[C@H](CO)CC3CCCCC3)ccc21` [Example 167, 2-Cyclopentylmethyl-1-(1-ethyl-propyl)-1H-benzoimidazole-5-carboxylic acid ((S)-1-cyclohexylmethyl-2-hydroxy-ethyl)-amide] here?
A: Its EC50 is 7550 nM.

Q: `CC(C)C[C@H](NC(=O)c1ccc2c(c1)nc(Cc1ccoc1)n2C1CCCCC1C)C(=O)O` (stereo partly drawn) [Example 131, (S)-2-{[2-Furan-3-ylmethyl-1-(2-methyl-cyclohexyl)-1H-benzoimidazole-5-carbonyl]-amino}-4-methyl-pentanoic acid] was tested. Which EC50 did it give?
A: The EC50 was 185 nM.

Q: With `CCC(CC)n1c(Cc2cccs2)nc2cc(C(=O)N[C@@H](CC(C)C)C(=O)N3CC[C@@H](N(C)C)C3)ccc21` [Example 260, 1-(1-Ethyl-propyl)-2-thiophen-2-ylmethyl-1H-benzoimidazole-5-carboxylic acid [(S)-1-((R)-3-dimethylamino-pyrrolidine-1-carbonyl)-3-methyl-butyl]-amide] as the compound, how does the EC50 read?
A: Its EC50 is 170 nM.

Q: With `CCOCCNC(=O)[C@H](CC(C)C)NC(=O)c1ccc2c(c1)nc(Cc1cccs1)n2C(CC)CC` [Example 383, 1-(1-Ethyl-propyl)-2-thiophen-2-ylmethyl-1H-benzoimidazole-5-carboxylic acid [(S)-1-(2-ethoxy-ethylcarbamoyl)-3-methyl-butyl]-amide] as the compound, how does the EC50 read?
A: The EC50 was 2120 nM.

Q: With `CCC(CC)n1c(Cc2cccs2)nc2cc(C(=O)N[C@@H](CC(C)C)C(=O)NCC3CCN(Cc4ccccc4)C3)ccc21` (stereo partly drawn) [Example 290, 1-(1-Ethyl-propyl)-2-thiophen-2-ylmethyl-1H-benzoimidazole-5-carboxylic acid {(S)-1-[(1-benzyl-pyrrolidin-3-ylmethyl)-carbamoyl]-3-methyl-butyl}-amide] as the compound, how does the EC50 read?
A: The EC50 was 506 nM.

Q: For `CCC(CC)n1c(Cc2cccs2)nc2cc(C(=O)N[C@@H](CC(C)C)C(=O)NCC3CCN(C(C)c4ccccc4)C3)ccc21` (stereo partly drawn) [Example 353, 1-(1-Ethyl-propyl)-2-thiophen-2-ylmethyl-1H-benzoimidazole-5-carboxylic acid ((S)-3-methyl-1-{[1-(1-phenyl-ethyl)-pyrrolidin-3-ylmethyl]-carbamoyl}-butyl)-amide], which EC50 is on record?
A: The EC50 was 787 nM.

Q: For `CC(C)C[C@H](NC(=O)c1ccc2c(c1)nc(Cc1cccs1)n2C1CCCC1C)C(=O)O` (single isomer, unassigned) [Example 429], which EC50 is on record?
A: Its EC50 is 891 nM.

Q: How did the EC50 turn out when `C[C@@H]1CCCC[C@H]1n1c(Cc2cccs2)nc2cc(C(=O)NC(CC(=O)O)C3CCCCC3)ccc21` (single isomer, unassigned) [Example 462] was run?
A: The EC50 was 137 nM.

Q: How did the EC50 turn out when `C[C@@H]1CCCC[C@H]1n1c(Cc2cccs2)nc2cc(C(=O)NC(CC3CCCC3)C(=O)O)ccc21` (single isomer, unassigned) [Example 442] was run?
A: The EC50 was 134 nM.

Q: How did the EC50 turn out when `CCCC[C@H](NC(=O)c1ccc2c(c1)nc(Cc1cccs1)n2C1CCCCC1C)C(=O)O` (single isomer, unassigned) [Example 420] was run?
A: Its EC50 is 14 nM.
